The test system of data set [1] is chicken chorioallantoic membrane (angiogenesis in chick embryos). The data set can be described thus: Chicken chorioallantoic membrane (CAM) assay. It is filed as in vivo.
Experimental: The one-day-old fertilized eggs were incubated for three days in the water-jacketed incubator (38° C., 85% humidity). The eggs were cracked and the chick embryos with intact yolks were placed in plastic Petri dishes containing 10 ml of RPMI-1640 medium (38° C., 85% humidity, 3% of CO2). After 3 days of incubation, the methylcellulose disk containing inhibitor was implanted on the CAMs of the individual embryos. After 48 h of incubation, CAM of individual embryo was analyzed for formation of avascular zones and photographed. The angiostatic effect was determined as a percentage of the area of blood vessels under the methylcellulose disks (3-5 eggs for each concentration) in relation to the non-treated areas. The area below the dialysis bag and two non-treated areas were scanned and saved on computer disk as tif files. Color images were converted into black/white images, contrast was enhanced, and images were saved as 16-bitmap files using Paint Software (Microsoft Corporation, Redmond, Va.). Black/white images were converted into false color (rainbow striped) images using Transform2 Software (Fortner, Sterling, Va.). […] This method provides some quantification of angiogenesis.
The target in a further data set is urokinase LMWt, Abbott (Homo sapiens, UniProt P00749). To be noted: 0.05 M Tris pH 8.8, 37° C., substrate 0.5 mM, urokinase at 1000 u/mL; cited from earlier work.
Another data set has as its target urokinase HMWt, Choay (Homo sapiens, UniProt P00749). The settings on record: 0.05 M Tris pH 8.8, 37° C., substrate 0.5 mM, urokinase at 1000 u/mL; cited from earlier work.

Turning to VEGF, the “vessel formation, positive control disk” value in data set [1] (methylcellulose disk containing VEGF) is “dense areas of newly formed vessels were developed”. For the compound `O=C(O[C@@H]1Cc2c(O)cc(O)cc2O[C@@H]1c1cc(O)c(O)c(O)c1)c1cc(O)c(O)c(O)c1` [EGCG, epigallocatechin gallate], the “colour change of methylcellulose disks (sign of probable oxidation)” value in data set [1] (in methylcellulose disk on CAM) was “the methylcellulose disks quickly change color”.

“Cbo-L-(γ)-Glu (α-t-BuO)-Gly-Arg-pNA.2AcOH [No. 244]”: the Vmax on urokinase LMWt, Abbott is on record as 0.53 μM mm-^1; at urokinase HMWt, Choay, 0.54 μM mm-^1. Moreover, the κm is 80 µM at urokinase LMWt, Abbott and 30 µM on urokinase HMWt, Choay. For `N=C(N)NC(=O)c1nc(Cl)c(N)nc1N` [amiloride], in data set [1] (48 h), the “large avascular zones outside of areas covered by methylcellulose disk containing the inhibitor” value is on record as “The effect was observed”.
